Experimental data taken from BigSolDB 2.1.

CC1(C)COP(=O)(Oc2cccc(OP3(=O)OCC(C)(C)CO3)c2)OC1
solubility (mole fraction)
Conditions | 293.15 K | 298.15 K | 303.15 K | 308.15 K | 313.15 K | 318.15 K | 323.15 K | 328.15 K | 333.15 K
in 1,2-dichloroethane | 0.017 | 0.0199 | 0.0233 | 0.0273 | 0.0317 | 0.0366 | 0.0423 | 0.0491 | 0.0564
in acetone | 0.00607 | 0.00796 | 0.0103 | 0.0131 | 0.0163 | 0.0201 | 0.0251 | – | –
in acetonitrile | 0.0102 | 0.0127 | 0.0153 | 0.0191 | 0.0231 | 0.0279 | 0.0342 | 0.0405 | 0.0491
in chloroform | 0.0646 | 0.07 | 0.0751 | 0.0807 | 0.086 | 0.0923 | 0.0984 | – | –
in ethanol | 0.00179 | 0.0024 | 0.00313 | 0.00413 | 0.00541 | 0.00702 | 0.00902 | 0.0118 | 0.0151
in ethyl acetate | 0.0008 | 0.00099 | 0.00123 | 0.00154 | 0.00189 | 0.00233 | 0.00284 | 0.00348 | 0.0042
in ethyl formate | 0.00422 | 0.00508 | 0.00607 | 0.00713 | 0.00842 | 0.00988 | 0.0116 | – | –
in methanol | 0.0022 | 0.00357 | 0.00543 | 0.0085 | 0.0129 | 0.0187 | 0.0284 | – | –
in methyl acetate | 0.00229 | 0.00281 | 0.00347 | 0.00422 | 0.00511 | 0.0062 | 0.00745 | – | –
in n-hexane | 1e-05 | 2e-05 | 2e-05 | 4e-05 | 6e-05 | 8e-05 | 0.00012 | – | –
in n-propanol | 0.00096 | 0.00135 | 0.00187 | 0.0026 | 0.00356 | 0.00495 | 0.00658 | 0.00899 | 0.0118
in toluene | 0.00016 | 0.0002 | 0.00026 | 0.00032 | 0.0004 | 0.00049 | 0.00061 | 0.00076 | 0.0009
